The values that follow come from patent US20190135887A1, “METABOLICALLY STABLE SPEXIN PEPTIDE ANALOGS” (UNIVERSITÉ DE STRASBOURG, priority 2016, published 2019).

Like-named read-outs stand apart in the source and are kept apart here. Peptide text beside a SMILES is read from it. * marks the point of attachment. Propanoyl(3-C8F17) = O=C(CCC(F)(F)C(F)(F)C(F)(F)C(F)(F)C(F)(F)C(F)(F)C(F)(F)C(F)(F)F)*

The target of data set [1] is T1, GalR2 (Homo sapiens, UniProt O43603).
T1 construct: expressed in transfected cells; host or cells: CHO cells
T1 sequence (O43603 1-387): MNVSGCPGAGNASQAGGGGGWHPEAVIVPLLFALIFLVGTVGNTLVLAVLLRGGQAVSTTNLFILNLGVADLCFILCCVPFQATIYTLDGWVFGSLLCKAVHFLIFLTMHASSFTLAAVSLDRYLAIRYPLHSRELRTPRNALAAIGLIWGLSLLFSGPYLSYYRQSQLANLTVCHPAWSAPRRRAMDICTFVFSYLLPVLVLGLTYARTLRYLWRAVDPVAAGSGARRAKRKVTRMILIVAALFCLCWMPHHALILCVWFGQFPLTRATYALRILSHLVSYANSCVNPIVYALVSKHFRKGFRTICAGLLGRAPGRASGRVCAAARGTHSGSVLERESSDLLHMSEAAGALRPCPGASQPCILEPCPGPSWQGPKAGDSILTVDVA
Description: Calcium mobilization in CHO cells expressing GalR2. In kind it is cell-based.

In data set [2] the target is T2, human GALR1 (Homo sapiens, UniProt P47211).
T2 construct: expressed in transfected cells; transiently transfected with pGloSensor-22F
T2 sequence (P47211 1-349): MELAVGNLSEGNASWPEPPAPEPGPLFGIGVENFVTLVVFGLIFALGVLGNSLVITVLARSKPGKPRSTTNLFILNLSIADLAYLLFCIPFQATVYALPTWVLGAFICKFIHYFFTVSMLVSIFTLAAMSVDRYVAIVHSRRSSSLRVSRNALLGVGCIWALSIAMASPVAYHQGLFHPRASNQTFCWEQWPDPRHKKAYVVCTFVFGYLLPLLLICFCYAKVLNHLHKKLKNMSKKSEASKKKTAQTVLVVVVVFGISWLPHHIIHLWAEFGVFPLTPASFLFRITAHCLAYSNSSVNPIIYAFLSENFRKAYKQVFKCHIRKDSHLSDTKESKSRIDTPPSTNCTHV
In words: Forskolin-induced cAMP accumulation, GloSensor cAMP assay in HEK293 cells. Format: cell-based. Conditions: HEK293 cells stably expressing GalR1, 1 μM compound. As for the experimental part: The effects were examined by using the GloSensor™ cAMP Assay according to manufacturer recommendations (Promega, Madison Wis., USA) with a few modifications. […] Following pre-equilibration for 2 h at 25° C., D-luciferin-loaded cells were distributed (100,000 cells per well) in a white 96-well plate and kinetic recordings of their luminescence level were acquired using a FlexStation II (Molecular Devices, Sunnyvale Calif., USA). Compounds to be tested were injected at various concentrations 10 min before forskolin addition (0.5 μM final concentration) and readings were pursued for 30 min. Experiments were conducted at 25° C. in the presence of 0.1 mM IBMX to prevent the degradation of cAMP by phospodiesterases.

In data set [3] the target is T3, human galanin GAL2 receptor (Homo sapiens, UniProt O43603).
T3 construct: expressed in transfected cells; host or cells: CHO cells (membrane homogenates)
T3 sequence (O43603 1-387): T1 sequence (O43603 1-387)
Description: Radioligand binding assay, [125I]galanin, transfected CHO cell membranes. As to conditions: read-out: Affinity % of inhibition at 100 nM. The protocol: Following incubation, the samples are filtered rapidly under vacuum through glass fiber filters (GF/B, Packard) presoaked with 0.3% PEI and rinsed several times with ice-cold 50 mM Tris-HCl using a 96-sample cell harvester (Unifilter, Packard). The filters are dried then counted for radioactivity in a scintillation counter (Topcount, Packard) using a scintillation cocktail (Microscint 0, Packard). The results are expressed as a percent inhibition of the control radioligand specific binding.

Data set [4] in a line: Solubility in water by visual observation. Format: physicochemical. As to conditions: dissolution in water to reach 100 μM. The protocol:
The resulting solution was vortexed 1 min following by 1 min in bath sonication. Solubility was then assessed by visual observation of the resulting dispersion (Clear/Cloudy and presence of particulates).

Data set [5] can be described thus: Human plasma stability. In kind it is in vitro ADME. Conditions: 37° C., 2 h incubation, read-out: Human plasma stability (t1/2). The protocol:
This procedure is designed to determine the stability of a test compound in blood or plasma from human or animal species in a 96-well plate format. The test compound is quantified at 5 time points by HPLC-MS/MS analysis. Test concentration: 1 μM with a final DMSO concentration of 0.5%. Experimental protocol: Blood or plasma are pre-warmed at 37° C. water bath for 5 min, followed by addition of the test compound. The incubation is performed in a 37° C. water bath for 2 h. An aliquot of the incubation mixture is transferred to acetonitrile at 0, 0.5, 1, 1.5 and 2 h, respectively. Samples are then mixed and centrifuged. Supernatants are used for HPLC-MS/MS analysis. Reference compounds Propoxycaine and propantheline are tested simultaneously with the test compound in each assay. Analytical methods Samples are analyzed by HPLC-MS/MS using selected reaction monitoring. The HPLC system consists of a binary LC pump with autosampler, a C-18 column, and a gradient. Conditions may be adjusted as necessary. Data analysis Peak areas corresponding to the test compound are recorded. The compound remaining (%) is calculated by comparing the peak area at each time point to time zero. The half-life is calculated from the slope of the initial linear range of the logarithmic curve of compound remaining (%) vs. time, assuming first order kinetics.

Data set [6] is described as follows: Non-specific adsorption to Eppendorf protein LoBind tubes. As to conditions: 10 μM in HEPES/BSA buffer. The protocol: The propensity of spexin analogs to bind to Eppendorf protein LoBind tubes was evaluated.
A solution of 10 μM of spexin analogs in solution in HEPES/BSA buffer was added to Eppendorf protein LoBind tubes, stirred for 5 min and vortexed for 2 min. The supernatant was removed from the tube and acetonitrile was added to dissolve the compound adsorbed to the plastic. The amount of peptide recovered was then evaluated by HPLC-MS/MS following the same protocol than above described for plasma stability analysis. The non-specific adsorption of peptides (%) was calculated by comparing the peak area of each compound recovered to that obtained with the same compound in DMSO (prevent the adsorption of the compounds to plastic).

For data set [7], the system named is C57BL/6N male mice. In words: Tail immersion test (nociception). In kind it is in vivo. As for the experimental part: Tail immersion test: Nociception tests were performed on male, awake C57BL/6N male mice (25-30 g weight; Janvier Labs, France). Animals were housed in groups of five per cage and kept under a 12 h/12 h light/dark cycle at 21±1° C. with ad libitum access to food and water. Experiments were performed during the light-on phase of the cycle. Mice were habituated to the testing room and equipment and handled for 1 week before starting behavioural experiments. The nociceptive thermal threshold of mice was determined using the tail immersion test. Mice were restrained in a grid pocket and their tail was immersed in a thermostated water bath. The latency (in sec) for tail withdrawal from hot water (47±0.5° C.) was taken as a measure of the nociceptive response.

Where [8] appears, read: CHO cells expressing GalR2, Fluo-4 AM, 37° C., read-out: EC50 Ca2+ production.

In the case of `CSCC[C@H](NC(=O)[C@H](C)NC(=O)[C@H](CCC(N)=O)NC(=O)[C@@H]1CCCN1C(=O)[C@@H](NC(=O)[C@H](Cc1c[nH]c2ccccc12)NC(=O)[C@H](CC(N)=O)NC(C)=O)[C@@H](C)O)C(=O)N[C@@H](CC(C)C)C(=O)N[C@@H](Cc1ccc(O)cc1)C(=O)N[C@@H](CC(C)C)C(=O)N[C@@H](CCCCN)C(=O)NCC(=O)N[C@@H](C)C(=O)N[C@@H](CCC(N)=O)C(=O)N[C@@H](CCCCNC(=O)C(CCCNC(=N)N)NC(=O)CNC(=O)C(CCCNC(=N)N)NC(=O)CCC(F)(F)C(F)(F)C(F)(F)C(F)(F)C(F)(F)C(F)(F)C(F)(F)C(F)(F)F)C(N)=O` (some centres unmarked) [LE-146], in data set [1], the EC50 stood at 8.4 ± 0.7 nM.

On to `CSCC[C@H](NC(=O)[C@H](C)NC(=O)[C@H](CCC(N)=O)NC(=O)[C@@H]1CCCN1C(=O)[C@@H](NC(=O)[C@H](Cc1c[nH]c2ccccc12)NC(=O)[C@@H](N)CC(N)=O)[C@@H](C)O)C(=O)N[C@@H](CC(C)C)C(=O)N[C@@H](Cc1ccc(O)cc1)C(=O)N[C@@H](CC(C)C)C(=O)N[C@@H](CCCCN)C(=O)NCC(=O)N[C@@H](C)C(=O)N[C@@H](CCC(N)=O)C(N)=O` [SPEXIN], for which the “% of activity at 1 μM” value in data set [2] is listed as 0%. The inhibition at 0.1 µM in data set [3] is 68.3%. In data set [4], this compound came in with a solubility at 2 min of over 100 µM. Further, in data set [5], the half-life at 1 μM worked out at 2.52 h.

Regarding `CSCC[C@H](NC(=O)[C@H](C)NC(=O)[C@H](CCC(N)=O)NC(=O)[C@@H]1CCCN1C(=O)[C@@H](NC(=O)[C@H](Cc1c[nH]c2ccccc12)NC(=O)[C@H](CC(N)=O)NC(=O)CCC(F)(F)C(F)(F)C(F)(F)C(F)(F)C(F)(F)C(F)(F)C(F)(F)C(F)(F)F)[C@@H](C)O)C(=O)N[C@@H](CC(C)C)C(=O)N[C@@H](Cc1ccc(O)cc1)C(=O)N[C@@H](CC(C)C)C(=O)N[C@@H](CCCCN)C(=O)NCC(=O)N[C@@H](C)C(=O)N[C@@H](CCC(N)=O)C(N)=O` [LE-144], the “% of activity at 1 μM” value in data set [2] turned out to be 0%. The “Non-specific adsorption of peptide” value in data set [6] is 42%. In data set [1] (setting [8]), the EC50 is 0.038 ± 0.008 nM. Besides, the “tail immersion withdrawal latency” value in data set [7] (0.1 nmol icv, 15 min, baseline 9.99±0.5 sec) is 14.26 ± 0.93 s; in data set [7] (0.1 nmol icv, 30 min, baseline 9.99±0.5 sec), 14.06 ± 0.34 s; in data set [7] (1 nmol icv, 15 min, baseline 10.12±0.59 sec), 15.58 ± 0.61 s; in data set [7] (1 nmol icv, 30 min, baseline 10.12±0.59 sec), 13.94 ± 0.75 s. Besides, the inhibition at 0.1 µM in data set [3] was 100%. In data set [4], the solubility was over 100 µM. Moreover, in data set [5], the half-life at 1 μM was 2.5 h.

Turning to `CSCC[C@H](NC(=O)[C@H](C)NC(=O)[C@H](CCC(N)=O)NC(=O)[C@@H]1CCCN1C(=O)[C@@H](NC(=O)[C@H](Cc1c[nH]c2ccccc12)NC(=O)[C@H](CC(N)=O)NC(C)=O)[C@@H](C)O)C(=O)N[C@@H](CC(C)C)C(=O)N[C@@H](Cc1ccc(O)cc1)C(=O)N[C@@H](CC(C)C)C(=O)N[C@@H](CCCCN)C(=O)NCC(=O)N[C@@H](C)C(=O)N[C@@H](CCC(N)=O)C(=O)N[C@@H](CCCCNC(=O)CCC(F)(F)C(F)(F)C(F)(F)C(F)(F)C(F)(F)C(F)(F)C(F)(F)C(F)(F)F)C(N)=O` [LE-128], the “% of activity at 1 μM” value in data set [2] worked out at 0%. Besides, the EC50 in data set [1] (setting [8]) came out at 2.3 ± 4 nM.

`CSCC[C@H](NC(=O)[C@H](C)NC(=O)[C@H](CCC(N)=O)NC(=O)[C@@H]1CCCN1C(=O)[C@@H](NC(=O)[C@H](Cc1c[nH]c2ccccc12)NC(=O)[C@H](CC(N)=O)NC(=O)[C@H](CCCNC(=N)N)NC(=O)CNC(=O)[C@H](CCCNC(=N)N)NC(=O)CCC(F)(F)C(F)(F)C(F)(F)C(F)(F)C(F)(F)C(F)(F)C(F)(F)C(F)(F)F)[C@@H](C)O)C(=O)N[C@@H](CC(C)C)C(=O)N[C@@H](Cc1ccc(O)cc1)C(=O)N[C@@H](CC(C)C)C(=O)N[C@@H](CCCCN)C(=O)NCC(=O)N[C@@H](C)C(=O)N[C@@H](CCC(N)=O)C(N)=O` [LE-130] ({Propanoyl(3-C8F17)}-RGRNWTPQAMLYLKGAQ-NH2): in data set [2], the “% of activity at 1 μM” value is recorded as 0%. The “Non-specific adsorption of peptide” value in data set [6] worked out at 15%. Further, the EC50 in data set [1] (setting [8]) stood at 0.089 ± 0.04 nM. Moreover, the inhibition at 0.1 µM in data set [3] worked out at 98.4%. The solubility in data set [4] is over 100 µM. In addition, the half-life at 1 μM in data set [5] came to 5.7 h.
